The test system of assay [1] is p52 (NF-kB2) nuclear translocation in HeLa cells. Description: NIK p52 Translocation Assay (non-classical NF-kB signaling). The note with it: Homo sapiens; HeLa cells, 100 ng/mL anti-lymphotoxin beta receptor antibody, 5 hours; read-out: inhibitory value (IC50) for NIK p52 Translocation Assay. The class given is cell-based. As for the experimental part: (2) A second set of cell assay was used to define the selectivity of NIK inhibitors toward inhibition of classical vs. non-classical NF-kB signaling and rely on quantification of the nuclear translocation of p52 (NF-kB2) and REL-A (p65) using high content cellular imaging. For the p52 (non-classical NF-kB signaling) nuclear translocation assay, HeLa cells were treated with different concentrations of compounds (0.2% DMSO final) in medium containing 10% fetal bovine serum and then stimulated with 100 ng/mL of an anti-lymphotoxin beta receptor antibody (R&D Systems) for 5 hours. In the REL-A nuclear translocation assay, HeLa cells were incubated with compounds (0.2% DMSO final) for 4.5 hours in medium containing 10% fetal bovine serum before stimulating them with 10 ng/mL tumor necrosis factor (TNF)-α (R&D Systems) for 30 minutes. Cells were fixed with 4% paraformaldehyde, permeabilized by adding 0.1% Triton X-100 in phosphate buffered saline, and then incubated with either 2 ug/mL anti-p52 antibody (Millipore) or 400 ng/mL anti-REL-A (p65) antibody (Santa Cruz Biotechnology). Finally, the cells were incubated with an Alexa488-labeled secondary antibody (Invitrogen) and DRAQ5 DNA stain (Biostatus). Imaging was carried out using an Opera reader (Perkin Elmer) and data are analyzed with the aid of Acapella software (Perkin Elmer). The p52 or REL-A translocation into the nucleus was quantified by the ratio of the nuclear to cytoplasmic signal intensity. The concentration of inhibitor required for 50% inhibition (IC50 values) in these cell assays were derived from the plots of signal vs. inhibitor concentration. The compounds in listed in Table 1 have the corresponding inhibitory value (IC50 in micromolar) for NIK p52 Translocation Assay (values for compounds are presented in the same order as found in Table 1, and “na” means the data for this assay is to be determined): 0.326, 0.33, na, na, na, 0.218, 0.07, na, na, na, 0.129, 7.6, 0.077, 3.4, na, 0.518, na, 0.059, 0.514, 0.127, na, na, 0.010, na, na, 0.313, 0.275, na, 0.0727, na, na, na, na, na, na, 0.194, na, 6.4, 0.22, 0.346, na, na, na and na, na, na, na, na, na, 0.447, na, 0.089, 0.479, 0.489, 0.243, 0.747, 1, na, 1.9, 0.552, 2.1, na. na, na, na, na and na.

In assay [2] the target is T1, nuclear factor-kappa B (NF-kB)-inducing kinase (NIK) (Homo sapiens, UniProt Q99558).
T1 construct: made in house; host or cells: baculovirus-infected insect cells
Description: NIK Enzyme Inhibition Assay (Transcreener ADP assay). The class given is biochemical. The note with it: purified NIK 0.2-1 nM, 10 uM ATP, fluorescence polarization, Morrison's quadratic equation; read-out: inhibitory value (Ki) for NIK. A general note: Fluorescence polarisation rises when a labelled molecule tumbles more slowly, as on binding a larger partner.

Assay [3] has as its system NF-kB signaling through NIK in human embryonic kidney 293 cells. Description: 293-NIK NF-kB-Luciferase reporter assay. The class given is cell-based. The note with it: HEK293, 293 cells with tetracycline-inducible NIK, 1 ug/mL doxycycline, 24 hours, read-out: inhibitory value (IC50) for 293-NIK NF-kB-Luciferase activity. An excerpt:
(1) The first assay was used to profile whether a test compound can inhibit the NF-kB signally through NIK inhibition without affecting cell viability. In this assay, human embryonic kidney 293 cells was stably transfected with a tetracycline-inducible NIK DNA construct containing a cytomegalovirus promoter plus two reporter DNA constructs. One reporter encoded firefly luciferase under the control of three repeats of an NF-kB response element from the ELAM-1 gene and reflects the level of NIK activity in the cells, whereas the other reporter constitutively expressed Renilla luciferase under the control of the herpes simplex virus thymidine kinase promoter and served as a general measure of cell viability. Cells were incubated with different concentrations of compounds (0.2% DMSO final) in medium containing 1 ug/mL doxycycline and 10% tet-system approved fetal bovine serum (Clontech) for 24 hours, after which the reporters' signals were detected using the Dual Glo luciferase detection system (Promega) according to the vendor's protocol. The compounds listed in Table 1 have the corresponding inhibitory value (IC50 in micromolar) for 293-NIK NF-kB-Luciferase activity (values for compounds are presented in the same order as found in Table 1): na, 0.059, na, na, na, 0.105, 0.027, na, 20, 1.2, na, 1.8, 0.0231, 0.879, 0.0361, 0.582, na, 0.142, na, 0.403, 0.059, 0.0331, na, na, 0.0573, 1.5, na, na, 0.0722, na, na, 0.589, 12.7, 3.7, 14.9, na, 0.707, 1, 0.0311, 0.332, 0.309, 0.0142, 0.051, 2.8, 0.129, na, na, 1.5, na, na, na, 1.3, 0.062, 20, 0.31, 0.104, 0.091, 0.037, 0.085, 0.279, na, 0.305, 0.064, 0.332, 0.133, 0.168, 0.217, 0.553, na and na.
On the technique in general: Reporter assays use an easily measured gene product as a stand-in for the process of interest.

Where only a bound is given, the exact number is not on record here.

T1 sequence (Q99558 whole entry): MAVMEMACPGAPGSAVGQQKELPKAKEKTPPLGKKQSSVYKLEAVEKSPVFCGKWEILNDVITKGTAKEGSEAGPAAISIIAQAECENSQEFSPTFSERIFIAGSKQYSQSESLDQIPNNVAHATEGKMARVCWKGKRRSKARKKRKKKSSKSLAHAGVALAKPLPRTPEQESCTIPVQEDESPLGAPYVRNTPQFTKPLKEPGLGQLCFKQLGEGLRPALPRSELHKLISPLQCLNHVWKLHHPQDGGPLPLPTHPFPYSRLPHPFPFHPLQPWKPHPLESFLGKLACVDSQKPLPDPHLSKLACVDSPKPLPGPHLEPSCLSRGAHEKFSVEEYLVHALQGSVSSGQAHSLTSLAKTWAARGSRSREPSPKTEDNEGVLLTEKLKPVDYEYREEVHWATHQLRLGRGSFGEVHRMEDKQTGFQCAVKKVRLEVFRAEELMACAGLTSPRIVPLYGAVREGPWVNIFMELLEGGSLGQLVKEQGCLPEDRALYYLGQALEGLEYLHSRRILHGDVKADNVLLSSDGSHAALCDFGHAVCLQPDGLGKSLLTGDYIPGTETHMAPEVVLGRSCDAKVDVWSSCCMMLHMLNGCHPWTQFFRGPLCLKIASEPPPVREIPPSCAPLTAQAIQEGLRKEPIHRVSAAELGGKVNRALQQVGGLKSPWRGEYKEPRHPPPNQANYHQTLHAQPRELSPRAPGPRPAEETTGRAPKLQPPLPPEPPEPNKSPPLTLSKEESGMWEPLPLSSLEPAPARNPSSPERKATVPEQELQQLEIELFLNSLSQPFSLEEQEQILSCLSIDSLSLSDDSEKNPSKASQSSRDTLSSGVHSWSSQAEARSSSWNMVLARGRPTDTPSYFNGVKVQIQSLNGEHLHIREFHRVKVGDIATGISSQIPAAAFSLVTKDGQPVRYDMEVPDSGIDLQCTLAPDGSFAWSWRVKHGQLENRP

With `CC1(C(=O)Nc2cnc(N)nc2-n2ncc3ccc(C#N)cc32)COC1` [Example T1-11, N-(2-amino-4-(6-cyano-1H-indazol-1-yl)pyrimidin-5-yl)-3-methyloxetane-3-carboxamide], in assay [1], the IC50 (usually the point on the concentration scale where inhibition reaches its midpoint) is 129 nM. The Ki – broadly, the dissociation constant of the complex between target and ligand, obtained from inhibition or displacement – in assay [2] was 559 nM.

For `Cc1nc2ccc(C#CC(C)(O)c3nccs3)cc2n1-c1ccnc(N)n1` (centres unmarked) [Example T1-12, 4-(1-(2-aminopyrimidin-4-yl)-2-methyl-1H-benzo[d]imidazol-6-yl)-2-(thiazol-2-yl)but-3-yn-2-ol], the IC50 in assay [1] came out at 7600 nM; in assay [3], 1800 nM. Also, in assay [2], the Ki amounted to 9.3 nM.

Regarding `CC(O)(C#Cc1ccc2cnn(-c3ccnc(N)n3)c2c1)C(F)F` (centres unmarked) [Example T1-19, 4-(1-(2-aminopyrimidin-4-yl)-1H-indazol-6-yl)-1,1-difluoro-2-methylbut-3-yn-2-ol], in assay [1], the IC50 came out at 514 nM. Besides, the Ki in assay [2] was 190 nM.

On to `COc1ncccc1Nc1ncnc(-n2ncc3ccc(C#N)cc32)n1` [Example T1-23, 1-(4-(2-methoxypyridin-3-ylamino)-1,3,5-triazin-2-yl)-1H-indazole-6-carbonitrile], for which, in assay [1], the IC50 is 10 nM. The Ki in assay [2] was greater than 5000 nM.

With `CC(O)(C#Cc1ccc2ncn(-c3ccnc(N)n3)c2c1)C(F)F` (centres unmarked) [Example T1-26, 4-(1-(2-aminopyrimidin-4-yl)-1H-benzo[d]imidazol-6-yl)-1,1-difluoro-2-methylbut-3-yn-2-ol], the IC50 amounted to 313 nM in assay [1] and 1500 nM in assay [3]. Also, in assay [2], the Ki turned out to be 61 nM.

As to `CC(O)(C#Cc1ccc2ncn(-c3ccnc(N)n3)c2c1)C(F)(F)F` (centres unmarked) [Example T1-27, 4-(1-(2-aminopyrimidin-4-yl)-1H-benzo[d]imidazol-6-yl)-1,1,1-trifluoro-2-methylbut-3-yn-2-ol], in assay [1], the IC50 was determined as 275 nM. Further, the Ki in assay [2] is 570 nM.

Turning to `CC(C)(O)C#Cc1ccc2cnn(-c3cc(N)ncn3)c2c1` [Example T1-36, 4-(1-(6-aminopyrimidin-4-yl)-1H-indazol-6-yl)-2-methylbut-3-yn-2-ol], in assay [1], the IC50 worked out at 194 nM. Besides, the Ki in assay [2] is 850 nM.

As for `CCOc1nc2ccc(C#CC(C)(C)O)cc2n1-c1ccnc(N)n1` [Example T1-38, 4-(1-(2-aminopyrimidin-4-yl)-2-ethoxy-1H-benzo[d]imidazol-6-yl)-2-methylbut-3-yn-2-ol], the IC50 stood at 6400 nM in assay [1] and 1000 nM in assay [3]. The Ki in assay [2] is 16 nM.

`CC(C)(O)C#Cc1cc2c(cc1F)ncn2-c1ccnc(N)n1` [Example T1-40, 4-(1-(2-aminopyrimidin-4-yl)-5-fluoro-1H-benzo[d]imidazol-6-yl)-2-methylbut-3-yn-2-ol]: the IC50 in assay [1] stood at 346 nM; in assay [3], 332 nM. The Ki in assay [2] worked out at 3 nM.

For the compound `CC(O)(C#Cc1ccc2ncn(-c3nccc(N)n3)c2c1)c1nccs1` (centres unmarked) [Example T1-50, 4-(1-(4-aminopyrimidin-2-yl)-1H-benzo[d]imidazol-6-yl)-2-(thiazol-2-yl)but-3-yn-2-ol], the 50% inhibitory concentration (IC50) in assay [1] was 447 nM. Moreover, the inhibition constant (Ki) in assay [2] came out at 152 nM.

As for `Cc1nonc1C(C)(O)C#Cc1ccc2c(C)nn(-c3ccnc(N)n3)c2c1` (centres unmarked) [Example T1-61, 4-(1-(2-aminopyrimidin-4-yl)-3-methyl-1H-indazol-6-yl)-2-(4-methyl-1,2,5-oxadiazol-3-yl)but-3-yn-2-ol], the IC50 in assay [1] amounted to 2100 nM. Also, the Ki in assay [2] was determined as 383 nM.

For the origin of these results see US8901313B2, “6,5-heterocyclic propargylic alcohol compounds and uses therefor” (Genentech, Inc., priority 2011, dated 2014).
